Among the data in PubChem BioAssay AID1259407 (Chemical Carcinogenesis Research Information System (CCRIS), 2018) are mutagenic call values, retold here.

The data set has as its system CCRIS mutagenicity, Ames/micronucleus/aberration tests. The experiment in a line: CCRIS mutagenicity studies.
The mark [1] stands for this setting: Test System: AMES SALMONELLA TYPHIMURIUM, Strain/Indicator: TA97, Metabolic Activation: HAMSTER, LIVER, S-9, AROCLOR 1254 (10%), Method: PREINCUBATION
Setting [2] is: Test System: AMES SALMONELLA TYPHIMURIUM, Strain/Indicator: TA97, Metabolic Activation: NONE, Method: PREINCUBATION
The mark [3] stands for this setting: Test System: AMES SALMONELLA TYPHIMURIUM, Strain/Indicator: TA97, Metabolic Activation: RAT, LIVER, S-9, AROCLOR 1254 (10%), Method: PREINCUBATION
[4] abbreviates: Test System: AMES SALMONELLA TYPHIMURIUM, Strain/Indicator: TA98, Metabolic Activation: NONE, Method: PREINCUBATION
The mark [5] stands for this setting: Test System: AMES SALMONELLA TYPHIMURIUM, Strain/Indicator: TA100, Metabolic Activation: NONE, Method: PREINCUBATION
The mark [6] stands for this setting: Test System: AMES SALMONELLA TYPHIMURIUM, Strain/Indicator: TA1535, Metabolic Activation: NONE, Method: PREINCUBATION
Setting [7] is: Test System: UDS RODENT HEPATOCYTES, Strain/Indicator: THY INCORP (NON-S-PHASE), Metabolic Activation: NONE, Method: AUTORADIOGRAPHY

The structures appear in SMILES notation. Calls of active or inactive are those of the source. No rule for the calls is given here.

With `Cc1cccc(C(=O)ON(OCc2ccccc2)C(=O)c2ccccc2)c1`, the mutagenic call reads like this: (Test System: AMES SALMONELLA TYPHIMURIUM, Strain/Indicator: TA100, Metabolic Activation: NONE, Method: STANDARD PLATE) “active; positive”; (Test System: AMES SALMONELLA TYPHIMURIUM, Strain/Indicator: TA100, Metabolic Activation: RAT, S-9, AROCLOR, Method: STANDARD PLATE) “active; positive”.
For the compound `CCO`, the mutagenic call is “inactive; negative” under setting [1]; “inactive; negative” (Test System: AMES SALMONELLA TYPHIMURIUM, Strain/Indicator: TA97, Metabolic Activation: HAMSTER, LIVER, S-9, AROCLOR 1254 (30%), Method: PREINCUBATION); “inactive; negative” under setting [2]; “inactive; negative” under setting [3]; “inactive; negative” (Test System: AMES SALMONELLA TYPHIMURIUM, Strain/Indicator: TA97, Metabolic Activation: RAT, LIVER, S-9, AROCLOR 1254 (30%), Method: PREINCUBATION); “inactive; negative” (Test System: AMES SALMONELLA TYPHIMURIUM, Strain/Indicator: TA98, Metabolic Activation: HAMSTER, LIVER, S-9, AROCLOR 1254 (10 OR 30%), Method: PREINCUBATION). Moreover, the mutagenic call by setting is: under setting [4], “inactive; negative”; (Test System: AMES SALMONELLA TYPHIMURIUM, Strain/Indicator: TA98, Metabolic Activation: RAT, LIVER, S-9, AROCLOR 1254 (10 OR 30%), Method: PREINCUBATION) “inactive; negative”; (Test System: AMES SALMONELLA TYPHIMURIUM, Strain/Indicator: TA100, Metabolic Activation: HAMSTER, LIVER, S-9, AROCLOR 1254 (10 OR 30%), Method: PREINCUBATION) “inactive; negative”; under setting [5], “inactive; negative”; (Test System: AMES SALMONELLA TYPHIMURIUM, Strain/Indicator: TA100, Metabolic Activation: RAT, LIVER, S-9, AROCLOR 1254 (10 OR 30%), Method: PREINCUBATION) “inactive; negative”; (Test System: AMES SALMONELLA TYPHIMURIUM, Strain/Indicator: TA104, Metabolic Activation: HAMSTER, LIVER, S-9, AROCLOR 1254 (10 OR 30%), Method: PREINCUBATION) “inactive; negative”. Also, the mutagenic call runs as follows: (Test System: AMES SALMONELLA TYPHIMURIUM, Strain/Indicator: TA104, Metabolic Activation: NONE, Method: PREINCUBATION) “inactive; negative”; (Test System: AMES SALMONELLA TYPHIMURIUM, Strain/Indicator: TA104, Metabolic Activation: RAT, LIVER, S-9, AROCLOR 1254 (10 OR 30%), Method: PREINCUBATION) “inactive; negative”; (Test System: AMES SALMONELLA TYPHIMURIUM, Strain/Indicator: TA1535, Metabolic Activation: HAMSTER, LIVER, S-9, AROCLOR 1254 (10 OR 30%), Method: PREINCUBATION) “inactive; negative”; under setting [6], “inactive; negative”; (Test System: AMES SALMONELLA TYPHIMURIUM, Strain/Indicator: TA1535, Metabolic Activation: RAT, LIVER, S-9, AROCLOR 1254 (10 OR 30%), Method: PREINCUBATION) “inactive; negative”; (Test System: MOUSE LYMPHOMA, Strain/Indicator: L5178Y (TK+/TK-), Metabolic Activation: NONE, Method: SUSPENSION/PLATE) “inactive; negative”. The mutagenic call (Test System: MOUSE LYMPHOMA, Strain/Indicator: L5178Y (TK+/TK-), Metabolic Activation: RAT, LIVER, S-9, AROCLOR 1254, Method: SUSPENSION/PLATE) is “inactive; negative”.
As for `Cc1ccc(N)c(C)c1`, the mutagenic call reads like this: (End Point: IN VITRO CHROMOSOMAL ABERRATIONS, Test System: CHL CELLS, Metabolic Activation: RAT, LIVER, S-9, SODIUM PHENOBARBITAL AND 5,6-BENZOFLAVONE) “active; positive (structural and ploidy changes)”; under setting [1], “active; positive”; under setting [2], “inactive; negative”; under setting [3], “inactive; negative”; (Test System: AMES SALMONELLA TYPHIMURIUM, Strain/Indicator: TA98, Metabolic Activation: HAMSTER, LIVER, S-9, AROCLOR 1254 (10%), Method: PREINCUBATION) “active; positive”; under setting [4], “inactive; negative”. Besides, the mutagenic call is “active; positive” (Test System: AMES SALMONELLA TYPHIMURIUM, Strain/Indicator: TA98, Metabolic Activation: RAT, LIVER, S-9, AROCLOR 1254 (10%), Method: PREINCUBATION); “inactive; negative” (Test System: AMES SALMONELLA TYPHIMURIUM, Strain/Indicator: TA98, Metabolic Activation: S-9, Method: PREINCUBATION); “active; positive” (Test System: AMES SALMONELLA TYPHIMURIUM, Strain/Indicator: TA100, Metabolic Activation: HAMSTER, LIVER, S-9, AROCLOR 1254 (10%), Method: PREINCUBATION); “active; positive” (Test System: AMES SALMONELLA TYPHIMURIUM, Strain/Indicator: TA100, Metabolic Activation: MOUSE, LIVER, S-9, AROCLOR 1254, Method: STANDARD PLATE); “inactive; negative” under setting [5]; “active; positive” (Test System: AMES SALMONELLA TYPHIMURIUM, Strain/Indicator: TA100, Metabolic Activation: RAT, LIVER, S-9, AROCLOR 1254 (10%), Method: PREINCUBATION). The mutagenic call is “active; positive” (Test System: AMES SALMONELLA TYPHIMURIUM, Strain/Indicator: TA100, Metabolic Activation: RAT, LIVER, S-9, AROCLOR 1254, Method: STANDARD PLATE); “active; positive” (Test System: AMES SALMONELLA TYPHIMURIUM, Strain/Indicator: TA100, Metabolic Activation: S-9, Method: PREINCUBATION); “inactive; negative” (Test System: AMES SALMONELLA TYPHIMURIUM, Strain/Indicator: TA1535, Metabolic Activation: HAMSTER, LIVER, S-9, AROCLOR 1254 (10%), Method: PREINCUBATION); “inactive; negative” under setting [6]; “inactive; negative” (Test System: AMES SALMONELLA TYPHIMURIUM, Strain/Indicator: TA1535, Metabolic Activation: RAT, LIVER, S-9, AROCLOR 1254 (10%), Method: PREINCUBATION); “inactive; negative” (Test System: AMES SALMONELLA TYPHIMURIUM, Strain/Indicator: TA1537, Metabolic Activation: HAMSTER, LIVER, S-9, AROCLOR 1254 (10%), Method: PREINCUBATION). The mutagenic call reads like this: (Test System: AMES SALMONELLA TYPHIMURIUM, Strain/Indicator: TA1537, Metabolic Activation: RAT, LIVER, S-9, AROCLOR 1254 (10%), Method: PREINCUBATION) “inactive; negative”; under setting [7], “active; positive”.
Regarding `Cc1ccc2ncccc2c1`, the mutagenic call is “active; positive” (Test System: AMES SALMONELLA TYPHIMURIUM, Strain/Indicator: TA98, Metabolic Activation: HAMSTER, LIVER, S-9, AROCLOR 1254 (30%), Method: PREINCUBATION); “inactive; negative” under setting [4]; “inactive; negative” (Test System: AMES SALMONELLA TYPHIMURIUM, Strain/Indicator: TA98, Metabolic Activation: RAT, LIVER, S-9, AROCLOR 1254 (5 OR 10%), Method: PREINCUBATION); “active; positive” (Test System: AMES SALMONELLA TYPHIMURIUM, Strain/Indicator: TA100, Metabolic Activation: HAMSTER, LIVER, S-9, AROCLOR 1254 (30%), Method: PREINCUBATION); “inactive; negative” under setting [5]; “active; positive” (Test System: AMES SALMONELLA TYPHIMURIUM, Strain/Indicator: TA100, Metabolic Activation: RAT, LIVER, S-9, AROCLOR 1254 (30%), Method: PREINCUBATION). Also, the mutagenic call is, setting by setting: (Test System: AMES SALMONELLA TYPHIMURIUM, Strain/Indicator: TA100, Metabolic Activation: RAT, LIVER, S-9, PHENOBARBITAL AND 5,6-BENZOFLAVONE, Method: PREINCUBATION) “active; positive”; (Test System: AMES SALMONELLA TYPHIMURIUM, Strain/Indicator: TA100, Metabolic Activation: RAT, LIVER, S-9, PHENOBARBITAL AND 5,6-NAPHTHOFLAVONE, Method: PREINCUBATION) “active; positive”; (Test System: AMES SALMONELLA TYPHIMURIUM, Strain/Indicator: TA100, Metabolic Activation: RAT, LIVER, S-9, Method: PREINCUBATION) “active; positive”; under setting [7], “inactive; negative”.
Consider `Cc1c[nH]c2ccccc12`, for which the mutagenic call is, setting by setting: under setting [5], “inactive; negative”; (Test System: AMES SALMONELLA TYPHIMURIUM, Strain/Indicator: TA100, Metabolic Activation: RAT LIVER S-9, PHENOBARBITOL/BETA-NAPHTHOFLAVONE, Method: PREINCUBATION) “inactive; negative”.
